The term IC50 denotes the midpoint of a concentration-inhibition curve.

Our source for the IC50 values is patent US10214542B2, “Modified macrocyclic compounds” (BAYER PHARMA AKTIENGESELLSCHAFT, priority 2015, dated 2019).

In assay [1] the target is T1, CDK2/CycE (Homo sapiens, UniProt P24941).
T1 construct: GST; purchased ProQinase GmbH (Freiburg, Germany); host or cells: insect cells (Sf9)
Kind of assay: CDK2/CycE kinase assay (TR-FRET, Method 2a). The settings on record: 10 μM ATP. Type of assay: biochemical. An excerpt:
2a. CDK2/CycE Kinase Assay:
CDK2/CycE-inhibitory activity of compounds of the present invention was quantified employing the CDK2/CycE TR-FRET assay as described in the following paragraphs:
Recombinant fusion proteins of GST and human CDK2 and of GST and human CycE, expressed in insect cells (Sf9) and purified by Glutathion-Sepharose affinity chromatography, were purchased from ProQinase GmbH (Freiburg, Germany). As substrate for the kinase reaction biotinylated peptide biotin-Ttds-YISPLKSPYKISEG (C-terminus in amid form) was used which can be purchased e.g. from the company JERINI Peptide Technologies (Berlin, Germany).
For the assay 50 nl of a 100 fold concentrated solution of the test compound in DMSO was pipetted into a black low volume 384 well microtiter plate (Greiner Bio-One, Frickenhausen, Germany), 2 μl of a solution of CDK2/CycE in aqueous assay buffer [50 mM Tris/HCl pH 8.0, 10 mM MgCl2, 1.0 mM dithiothreitol, 0.1 mM sodium ortho-vanadate, 0.01% (v/v) Nonidet-P40 (Sigma)] were added and the mixture was incubated for 15 min at 22° C. to allow pre-binding of the test compounds to the enzyme before the start of the kinase reaction. […] The concentration of CDK2/CycE was adjusted depending of the activity of the enzyme lot and was chosen appropriate to have the assay in the linear range, typical concentrations were in the range of 130 ng/mL. The reaction was stopped by the addition of 5 μl of a solution of TR-FRET detection reagents (0.2 μM streptavidine-XL665 [Cisbio Bioassays, Codolet, France] and 1 nM anti-RB(pSer807/pSer811)-antibody from BD Pharmingen [#558389] and 1.2 nM LANCE EU-W1024 labeled anti-mouse IgG antibody [Perkin-Elmer, product no. AD0077]) in an aqueous EDTA-solution (100 mM EDTA, 0.2% (w/v) bovine serum albumin in 100 mM HEPES pH 7.5).
(§1) The resulting mixture was incubated 1 h at 22° C. to allow the formation of complex between the phosphorylated biotinylated peptide and the detection reagents. Subsequently the amount of phosphorylated substrate was evaluated by measurement of the resonance energy transfer from the Eu-chelate to the streptavidine-XL. Therefore, the fluorescence emissions at 620 nm and 665 nm after excitation at 350 nm was measured in a TR-FRET reader, e.g. a Rubystar (BMG Labtechnologies, Offenburg, Germany) or a Viewlux (Perkin-Elmer). The ratio of the emissions at 665 nm and at […] was taken as the measure for the amount of phosphorylated substrate. The data were normalised (enzyme reaction without inhibitor=0% inhibition, all other assay components but no enzym=100% inhibition).
In general terms: In TR-FRET formats the signal depends on donor and acceptor labels being close together.

Assay [2] addresses T1, CDK2/CycE. Kind of assay: CDK2/CycE high ATP kinase assay (TR-FRET, Method 2b). In kind it is biochemical. The settings on record: 2 mM ATP. The procedure: 2b. CDK2/CycE High ATP Kinase Assay:
CDK2/CycE-inhibitory activity of compounds of the present invention at 2 mM adenosine-tri-phosphate (ATP) was quantified employing the CDK2/CycE TR-FRET (TR-FRET=Time Resolved Fluorescence Resonance Energy Transfer) assay as described in the following paragraphs.
Recombinant fusion proteins of GST and human CDK2 and of GST and human CycE, expressed in insect cells (Sf9) and purified by Glutathion-Sepharose affinity chromatography, were purchase from ProQinase GmbH (Freiburg, Germany). As substrate for the kinase reaction biotinylated peptide biotin-Ttds-YISPLKSPYKISEG (C-terminus in amid form) was used which can be purchased e.g. from the company JERINI peptide technologies (Berlin, Germany).
For the assay 50 nl of a 100 fold concentrated solution of the test compound in DMSO was pipetted into a black low volume 384 well microtiter plate (Greiner Bio-One, Frickenhausen, Germany), 2 μl of a solution of CDK2/CycE in aqueous assay buffer [50 mM Tris/HCl pH 8.0, 10 mM MgCl2, 1.0 mM dithiothreitol, 0.1 mM sodium ortho-vanadate, 0.01% (v/v) Nonidet-P40 (Sigma)] were added and the mixture was incubated for 15 min at 22° C. to allow pre-binding of the test compounds to the enzyme before the start of the kinase reaction. Then the kinase reaction was started by the addition of 3 μl of a solution ATP (3.33 mM=>final conc. in the 5 μl assay volume is 2 mM) and substrate (1.25 μM=>final conc. in the 5 μl assay volume is 0.75 μM) in assay buffer and the resulting mixture was incubated for a reaction time of 25 min at 22° C. The concentration of CDK2/CycE was adjusted depending of the activity of the enzyme lot and was chosen appropriate to have the assay in the linear range, typical concentrations were in the range of 15 ng/ml. The reaction was stopped by the addition of 5 μl of a solution of TR-FRET detection reagents (0.2 μM streptavidine-XL665 [Cisbio Bioassays, Codolet, France] and 1 nM anti-RB(pSer807/pSer811)-antibody from BD Pharmingen [#558389] and 1.2 nM LANCE EU-W1024 labeled anti-mouse IgG antibody [Perkin-Elmer, product no. AD0077, as an alternative a Terbium-cryptate-labeled anti-mouse IgG antibody from Cisbio Bioassays can be used]) in an aqueous EDTA-solution (100 mM EDTA, 0.2% (w/v) bovine serum albumin in 100 mM HEPES pH 7.5).
as §1, with “350 nm were measured in” for “350 nm was measured in”

For `CS(=O)(Cc1cc2nc(c1)Nc1cc(c(F)cn1)-c1ccc(F)cc1OCCCCN2)=NC(=O)OCc1ccccc1` (racemic) [Example 2, (rac)-Benzyl[{[16,20-difluoro-3,4,5,6-tetrahydro-2H,12H-11,7-(azeno)-13,17-(metheno)-1,6,12,14-benzoxatriazacyclononadecin-9-yl]methyl}(methyl)oxido-λ^6-sulfanylidene]carbamate], the results for the IC50 in assay [1] and in assay [2] were 698 nM and 8050 nM, respectively.

Regarding `CS(=N)(=O)Cc1cc2nc(c1)Nc1cc(c(F)cn1)-c1ccc(F)cc1OCCCCN2` (racemic) [Example 3, (rac)-16,20-Difluoro-9-[(S-methylsulfonimidoyl)methyl]-3,4,5,6-tetrahydro-2H,12H-11,7-(azeno)-13,17-(metheno)-1,6,12,14-benzoxatriazacyclononadecine], the IC50 is 44 nM in assay [1] and 650 nM in assay [2].

Consider `C[S+]([O-])Cc1cc2nc(c1)OCCCCc1cc(F)ccc1-c1cc(ncc1F)N2` (racemic) [Example 5, (rac)-2,18-Difluoro-9-[(methylsulfinyl)methyl]-13,14,15,16-tetrahydro-6H-7,11-(azeno)-5,1-(metheno)-12,4,6-benzoxadiazacyclooctadecine], for which the IC50 in assay [1] was 275 nM; in assay [2], 8250 nM.

`CC(C)(C)OC(=O)N=S(C)(=O)Cc1cc2nc(c1)Nc1cc(c(F)cn1)-c1ccc(F)cc1OCCCN2` (racemic) [Example 7, (rac)-tert-butyl[{[15,19-difluoro-2,3,4,5-tetrahydro-11H-10,6-(azeno)-16,12-(metheno)-1,5,11,13-benzoxatriazacyclooctadecin-8-yl]methyl}(methyl)oxido-λ^6-sulfanylidene]carbamate]: the values for the IC50 in assay [1] and in assay [2] were 27 nM and 61 nM, respectively.

For the compound `CS(=N)(=O)Cc1cc2nc(c1)Nc1cc(c(F)cn1)-c1ccc(F)cc1OCCCN2` (racemic) [Example 8, (rac)-15,19-difluoro-8-[(S-methylsulfonimidoyl)methyl]-2,3,4,5-tetrahydro-11H-10,6-(azeno)-16,12-(metheno)-1,5,11,13-benzoxatriazacyclooctadecine], the IC50 came to 9.1 nM in assay [1] and 29 nM in assay [2].

Consider `CC(C)(C)OC(=O)N=S(C)(=O)Cc1cc2nc(c1)Nc1cc(c(F)cn1)-c1ccc(F)cc1OCCCCCN2` (racemic) [Example 9, (rac)-tert-butyl[{[17,21-difluoro-2,3,4,5,6,7-hexahydro-13H-12,8-(azeno)-14,18-(metheno)-1,7,13,15-benzoxatriazacycloicosin-10-yl]methyl}(methyl)oxido-λ^6-sulfanylidene]carbamate], for which the IC50 was 96 nM in assay [1] and 253 nM in assay [2].

Consider `CS(=N)(=O)Cc1cc2nc(c1)Nc1cc(c(F)cn1)-c1ccc(F)cc1OCCCCCN2` (racemic) [Example 10, (rac)-17,21-difluoro-10-[(S-methylsulfonimidoyl)methyl]-2,3,4,5,6,7-hexahydro-13H-12,8-(azeno)-14,18-(metheno)-1,7,13,15-benzoxatriazacycloicosine], for which the IC50 in assay [1] worked out at 28 nM; in assay [2] it was 102 nM.

Regarding `CN1CCCCOc2cc(F)ccc2-c2cc(ncc2F)Nc2cc(CS(C)(=N)=O)cc1n2` (racemic) [Example 11, (rac)-16,20-difluoro-6-methyl-9-[(S-methylsulfonimidoyl)methyl]-3,4,5,6-tetrahydro-2H-7,11-(azeno)-17,13-(metheno)-1,6,12,14-benzoxatriazacyclononadecine], the values for the IC50 in assay [1] and in assay [2] were 34 nM and 80 nM, respectively.

`CC(C)(C)OC(=O)N=S(C)(=O)Cc1cc2cc(c1)OCCCNc1cc(F)ccc1-c1nc(ncc1F)N2` (racemic) [Example 13, (rac)-tert-butyl[{[15,19-difluoro-1,2,3,4-tetrahydro-16,12-(azeno)-6,10-(metheno)-5,1,11,13-benzoxatriazacyclooctadecin-8(11H)-yl]methyl}(methyl)oxido-λ^6-sulfanylidene]carbamate] displayed an IC50 in assay [2] of 1280 nM.

Consider `CS(=N)(=O)Cc1cc2cc(c1)OCCCNc1cc(F)ccc1-c1nc(ncc1F)N2` (racemic) [Example 14, rac-15,19-difluoro-8-[(S-methylsulfonimidoyl)methyl]-1,2,3,4-tetrahydro-16,12-(azeno)-6,10-(metheno)-5,1,11,13-benzoxatriazacyclooctadecine], for which the 50% inhibitory concentration (IC50) in assay [2] came to 94 nM.

With `CC(C)(C)OC(=O)N=S(C)(=O)Cc1cc2cc(c1)OCCCCNc1cc(F)ccc1-c1nc(ncc1F)N2` (racemic) [Example 15, (rac)-tert-butyl[{[16,20-difluoro-2,3,4,5-tetrahydro-1H,12H-13,17-(azeno)-11,7-(metheno)-6,1,12,14-benzoxatriazacyclononadecin-9-yl]methyl}(methyl)oxido-λ^6-sulfanylidene]carbamate], the IC50 in assay [1] was determined as 262 nM; in assay [2], 3350 nM.

Turning to `CC(C)(C)OC(=O)N=S(C)(=O)Cc1cc2cc(c1)OCCCCSc1cc(F)ccc1-c1nc(ncc1F)N2` (racemic) [Example 21, (rac)-tert-butyl[{[16,20-difluoro-2,3,4,5-tetrahydro-12H-17,13-(azeno)-11,7-(metheno)-6,1,12,14-benzoxathiadiazacyclononadecin-9-yl]methyl}(methyl)oxido-λ^6-sulfanylidene]carbamate], in assay [2], the 50% inhibitory concentration (IC50) was found to be 11900 nM.

Consider `CS(=N)(=O)Cc1cc2cc(c1)OCCCCSc1cc(F)ccc1-c1nc(ncc1F)N2` (racemic) [Example 22, (rac)-16,20-difluoro-9-[(S-methylsulfonimidoyl)methyl]-2,3,4,5-tetrahydro-12H-17,13-(azeno)-11,7-(metheno)-6,1,12,14-benzoxathiadiazacyclononadecine], for which the IC50 in assay [2] is 1100 nM. This IC50 lies about 11-fold lower than the previous one.

Consider `CSCc1cc2nc(c1F)N(C)CCCCOc1cc(F)ccc1-c1cc(ncc1F)N2` [Example 12, 8,16,20-trifluoro-6-methyl-9-[(methylsulfanyl)methyl]-3,4,5,6-tetrahydro-2H,12H-11,7-(azeno)-13,17-(metheno)-1,6,12,14-benzoxatriazacyclononadecine], for which, in assay [1], the IC50 is 27 nM. In other words, the double-digit nanomolar range.
